For assay [1], the system named is αVβ5 receptor. In words: Inhibition of biotinylated vitronectin binding to αVβ5 receptor. The note with it: ratio of IC50 values of Table 1.
The target in assay [2] is T1, Recombinant human integrin αVβ3 (Homo sapiens, UniProt P05106+P06756).
T1 construct: purchased R&D Systems, Minneapolis, MN, USA
The arrangement: method as in PMID 22517378, PMID 23424096. The following applies: free ligands, Table 1; mean ± SD of triplicate determinations; read-out: IC50 αVβ3, inhibition of biotinylated vitronectin binding; cited from earlier work.

Assay [3] addresses αVβ5 receptor. Also on record: method as in PMID 22517378, PMID 23424096. The following applies: free ligands, Table 1; mean ± SD of triplicate determinations; read-out: IC50 αVβ5, inhibition of biotinylated vitronectin binding; cited from earlier work.

The text below walks through data of publication PMC5827777, “Synthesis and biological evaluation of RGD and isoDGR peptidomimetic-α-amanitin conjugates for tumor-targeting” (Beilstein Journal of Organic Chemistry, 2018).

T1 sequence (P06756 31-992 limits assumed): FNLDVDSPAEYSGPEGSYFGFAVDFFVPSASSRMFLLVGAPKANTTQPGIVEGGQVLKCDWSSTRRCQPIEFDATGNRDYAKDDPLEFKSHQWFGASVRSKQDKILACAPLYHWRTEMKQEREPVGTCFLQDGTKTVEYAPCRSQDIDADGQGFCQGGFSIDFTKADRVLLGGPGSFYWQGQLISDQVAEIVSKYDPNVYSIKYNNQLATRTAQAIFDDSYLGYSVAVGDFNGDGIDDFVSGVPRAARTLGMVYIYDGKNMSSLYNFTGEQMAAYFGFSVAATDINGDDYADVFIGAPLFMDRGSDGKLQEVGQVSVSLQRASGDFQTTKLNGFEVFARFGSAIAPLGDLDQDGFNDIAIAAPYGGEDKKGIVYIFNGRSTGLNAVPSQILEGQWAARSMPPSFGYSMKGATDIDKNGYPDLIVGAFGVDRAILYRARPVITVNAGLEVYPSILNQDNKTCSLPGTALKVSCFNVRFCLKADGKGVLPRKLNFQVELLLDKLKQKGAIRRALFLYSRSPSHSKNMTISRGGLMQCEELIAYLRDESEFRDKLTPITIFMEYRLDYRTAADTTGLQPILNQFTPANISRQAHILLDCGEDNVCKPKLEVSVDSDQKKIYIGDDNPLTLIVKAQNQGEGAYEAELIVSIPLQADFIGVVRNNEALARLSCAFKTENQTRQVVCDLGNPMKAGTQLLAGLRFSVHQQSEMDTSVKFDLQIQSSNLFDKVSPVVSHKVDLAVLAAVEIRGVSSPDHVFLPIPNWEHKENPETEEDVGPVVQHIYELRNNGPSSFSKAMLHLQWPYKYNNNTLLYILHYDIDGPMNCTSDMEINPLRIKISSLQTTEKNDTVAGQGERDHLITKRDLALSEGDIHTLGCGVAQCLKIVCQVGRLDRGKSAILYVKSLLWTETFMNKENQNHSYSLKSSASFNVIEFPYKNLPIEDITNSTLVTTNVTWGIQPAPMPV
T1 sequence (P05106 27-718 limits assumed): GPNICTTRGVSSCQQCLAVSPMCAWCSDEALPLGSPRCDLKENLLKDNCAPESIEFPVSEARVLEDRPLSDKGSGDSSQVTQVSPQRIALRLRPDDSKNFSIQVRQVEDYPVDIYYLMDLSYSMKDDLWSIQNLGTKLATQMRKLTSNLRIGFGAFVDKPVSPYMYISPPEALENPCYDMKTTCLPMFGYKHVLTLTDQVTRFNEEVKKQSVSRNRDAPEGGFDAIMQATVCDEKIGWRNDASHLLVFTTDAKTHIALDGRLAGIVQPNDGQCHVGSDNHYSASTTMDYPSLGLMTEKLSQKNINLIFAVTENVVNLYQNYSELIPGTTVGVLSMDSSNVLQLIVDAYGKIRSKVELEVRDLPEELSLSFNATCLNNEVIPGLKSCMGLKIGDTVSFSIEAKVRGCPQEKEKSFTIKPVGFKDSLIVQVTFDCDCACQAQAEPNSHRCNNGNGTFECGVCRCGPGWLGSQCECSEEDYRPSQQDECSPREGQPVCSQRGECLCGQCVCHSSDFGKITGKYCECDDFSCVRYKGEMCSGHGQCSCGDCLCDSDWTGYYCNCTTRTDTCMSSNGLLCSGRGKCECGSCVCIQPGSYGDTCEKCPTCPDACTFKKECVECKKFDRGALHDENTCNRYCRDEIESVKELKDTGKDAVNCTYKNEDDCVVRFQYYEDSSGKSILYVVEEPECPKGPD

In general, IC50 refers to the midpoint of a concentration-inhibition curve. Consider `N=C(N)NCCC[C@@H]1NC(=O)CNC(=O)C[C@@H](C(=O)O)NC(=O)C[C@H]2NC(=O)[C@H](CNC1=O)N(Cc1ccccc1)C2=O` [Ligand 3, cyclo[DKP-isoDGR]], for which the “selectivity for αVβ3 in comparison with integrin αVβ5” value in assay [1] is 33–34 times. Further, the IC50 is 0.0092 ± 0.0011 µM in assay [2] and 0.312 ± 0.021 µM in assay [3].
